Measured values as given in patent US12187709B2 (Genentech, Inc., priority 2021, dated 2025).

Legend:
Cbl-b = Cbl-b (Homo sapiens (Human), UniProt Q13191); experiment: Cbl-b LCK Ub TR-FRET assay (Cbl-b Lck HTRF); type: biochemical; conditions: for IC50: Cbl-b LCK Ub TR-FRET; for fold-selectivity (Cbl-b over C-cbl): ratio C-cbl Lck HTRF IC50 / Cbl-b Lck HTRF IC50
Summary of the method: (§1)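 After the ubiquitination reaction, detection mixture was added and plates incubated 20 min at room temperature before reading. IC50 values were calculated with wells lacking LCK as the low control and DMSO as the high control.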

c-Cbl = c-Cbl (Homo sapiens (Human), UniProt P22681); experiment: C-Cbl LCK Ub TR-FRET assay (C-cbl Lck HTRF); type: biochemical
Chain of c-Cbl (P22681 47-435): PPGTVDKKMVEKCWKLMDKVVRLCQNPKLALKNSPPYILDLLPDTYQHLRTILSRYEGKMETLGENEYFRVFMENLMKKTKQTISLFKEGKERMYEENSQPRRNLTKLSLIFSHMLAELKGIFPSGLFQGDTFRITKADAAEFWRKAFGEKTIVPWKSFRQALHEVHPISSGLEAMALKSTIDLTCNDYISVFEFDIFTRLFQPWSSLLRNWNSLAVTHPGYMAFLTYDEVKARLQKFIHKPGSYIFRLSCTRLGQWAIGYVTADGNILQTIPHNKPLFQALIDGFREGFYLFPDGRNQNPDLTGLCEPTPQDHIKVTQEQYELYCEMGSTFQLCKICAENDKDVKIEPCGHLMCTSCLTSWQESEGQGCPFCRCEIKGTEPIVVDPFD
Summary of the method: as §1

[1] = molecular target: Human Cbl-b (residues 40-426) (Homo sapiens (Human), UniProt Q13191); experiment: Cbl-b SPR assay; type: binding; conditions: for Fold of selectivity: C-cbl SPR Kd vs Cbl-b SPR Kd; for Kd: SPR, 20° C.
Chain of Human Cbl-b (residues 40-426) (Q13191 40-426): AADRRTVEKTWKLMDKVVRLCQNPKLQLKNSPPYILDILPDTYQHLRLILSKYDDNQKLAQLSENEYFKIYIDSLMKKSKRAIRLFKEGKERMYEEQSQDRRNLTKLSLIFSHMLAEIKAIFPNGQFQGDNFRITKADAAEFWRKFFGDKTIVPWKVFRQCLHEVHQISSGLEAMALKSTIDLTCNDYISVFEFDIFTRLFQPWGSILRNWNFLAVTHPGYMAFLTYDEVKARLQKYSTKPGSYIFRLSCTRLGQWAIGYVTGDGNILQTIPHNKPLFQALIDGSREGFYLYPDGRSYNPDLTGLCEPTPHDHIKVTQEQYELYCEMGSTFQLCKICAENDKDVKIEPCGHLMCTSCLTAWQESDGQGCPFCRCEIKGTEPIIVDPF
Summary of the method: (§2)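 Binding is measured by surface plasmon resonance against both isoforms, with double referencing and 1:1 kinetic fitting. Dissociation time is tuned to 4-5 half-lives.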

c-Cbl (residues 47-435) = c-Cbl (residues 47-435) (Homo sapiens (Human), UniProt P22681); experiment: c-Cbl SPR assay; type: binding; conditions: 20° C.
Chain of c-Cbl (residues 47-435) (P22681 47-435): as the sequence (P22681 47-435) above
Summary of the method: as §2

Chain of Cbl-b (Q13191 40-426): as the sequence (Q13191 40-426) above

| SMILES | IC50 (Cbl-b) | fold-selectivity (Cbl-b over C-cbl) (Cbl-b) | IC50 (c-Cbl) | Fold of selectivity [1] | Kd [1] | Kd (c-Cbl (residues 47-435)) |
| --- | --- | --- | --- | --- | --- | --- |
| CO[C@H]1C[C@@](c2cc(NC3COC3)cc(N3Cc4c(cc(CNC5(C)CCC5)cc4C(F)(F)F)C3=O)c2)(c2nncn2C)C1 [Compound 243, 2-(3-((1s,3s)-3-methoxy-1-(4-methyl-4H-1,2,4-triazol-3-yl)cyclobutyl)-5-(oxetan-3-ylamino)phenyl)-6-(((1-methylcyclobutyl)amino)methyl)-4-(trifluoromethyl)isoindolin-1-one] | 0.064 µM | 4.4x | 0.29 µM | 14× | 0.011 µM | 0.15 µM |
| Cn1cnnc1[C@]1(c2cccc(N3Cc4c(Cl)cc(CNC5(C)CCC5)cc4C3=O)c2)C[C@H](F)C1 [Compound 246, 4-chloro-2-(3-((1s,3s)-3-fluoro-1-(4-methyl-4H-1,2,4-triazol-3-yl)cyclobutyl)phenyl)-6-(((1-methylcyclobutyl)amino)methyl)isoindolin-1-one] | 0.0086 µM | 1.7x | 0.015 µM | 2.1× | 0.0042 µM | 0.0085 µM |
| Cn1cnnc1[C@]1(c2cccc(N3Cc4c(cc(CNC5(C)CCC5)cc4C(F)F)C3=O)c2)C[C@H](F)C1 [Compound 247, 4-(difluoromethyl)-2-(3-((1s,3s)-3-fluoro-1-(4-methyl-4H-1,2,4-triazol-3-yl)cyclobutyl)phenyl)-6-(((1-methylcyclobutyl)amino)methyl)isoindolin-1-one] | 0.0098 µM | 1.9x | 0.018 µM | 5.5× | 0.0022 µM | 0.012 µM |
| Cn1cnnc1[C@H](CC1CCCC1)c1cccc(N2Cc3c(cc(CNC4(C)CCC4)cc3C(F)(F)F)C2=O)c1 [Compound 249, (R)-2-(3-(2-cyclopentyl-1-(4-methyl-4H-1,2,4-triazol-3-yl)ethyl)phenyl)-6-(((1-methylcyclobutyl)amino)methyl)-4-(trifluoromethyl)isoindolin-1-one] | 0.1 µM | 5.0x | 0.5 µM | 6.9× | 0.049 µM | 0.3 µM |
| Cn1cnnc1[C@@H](c1cccc(N2Cc3c(cc(CNC4(C)CCC4)cc3C(F)(F)F)C2=O)c1)C1CCCC1 [Compound 256, (R)-2-(3-(cyclopentyl(4-methyl-4H-1,2,4-triazol-3-yl)methyl)phenyl)-6-(((1-methylcyclobutyl)amino)methyl)-4-(trifluoromethyl)isoindolin-1-one] | 0.21 µM | 6.5x | 1.4 µM | 14× | 0.18 µM | 2.5 µM |
| Cn1cnnc1[C@H](c1cccc(N2Cc3c(cc(CNC4(C)CCC4)cc3C(F)(F)F)C2=O)c1)C1CCCC1 [Compound 257, (S)-2-(3-(cyclopentyl(4-methyl-4H-1,2,4-triazol-3-yl)methyl)phenyl)-6-(((1-methylcyclobutyl)amino)methyl)-4-(trifluoromethyl)isoindolin-1-one] | 0.022 µM | 1.2x | 0.027 µM | 5.7× | 0.00065 µM | 0.0037 µM |
| Cn1cnnc1[C@]1(c2cccc(N3Cc4c(cc(CNC5(C)CCC5)cc4C(F)(F)F)C3=O)c2)C[C@H](OCC#N)C1 [Compound 280, 2-((1s,3s)-3-(4-methyl-4H-1,2,4-triazol-3-yl)-3-(3-(6-(((1-methylcyclobutyl)amino)methyl)-1-oxo-4-(trifluoromethyl)isoindolin-2-yl)phenyl)cyclobutoxy)acetonitrile] | 0.0068 µM | 1.6x | 0.011 µM | 7.0× | 0.0011 µM | 0.0072 µM |
| Cn1cnnc1[C@]1(c2cccc(N3Cc4c(cc(CNC5(C)CCC5)cc4C(F)(F)F)C3=O)c2)C[C@@H](OCC#N)C1 [Compound 281, 2-((1r,3r)-3-(4-methyl-4H-1,2,4-triazol-3-yl)-3-(3-(6-(((1-methylcyclobutyl)amino)methyl)-1-oxo-4-(trifluoromethyl)isoindolin-2-yl)phenyl)cyclobutoxy)acetontrile] | 0.0067 µM | 1.3x | 0.0095 µM | 6.3× | 0.0011 µM | 0.007 µM |

Now from value to compound:

| IC50 (Cbl-b) | fold-selectivity (Cbl-b over C-cbl) (Cbl-b) | IC50 (c-Cbl) | Fold of selectivity [1] | Kd [1] | Kd (c-Cbl (residues 47-435)) | SMILES |
| --- | --- | --- | --- | --- | --- | --- |
| 0.17 µM | 5.8x | 0.97 µM | 13× | 0.17 µM | 2.2 µM | Cn1cnnc1[C@@H](c1cccc(N2Cc3c(cc(CNC4(C)CCC4)cc3C(F)(F)F)C2=O)c1)C1CCC1 [Compound 258, (R)-2-(3-(cyclobutyl(4-methyl-4H-1,2,4-triazol-3-yl)methyl)phenyl)-6-(((1-methylcyclobutyl)amino)methyl)-4-(trifluoromethyl)isoindolin-1-one] |
| 0.45 µM | 5.4x | 2.4 µM | 8.8× | 0.59 µM | 2.2 µM | Cn1cnnc1[C@@H](c1cccc(N2Cc3c(cc(CNC4(C)CCC4)cc3C(F)(F)F)C2=O)c1)C1CC(OCC(F)F)C1 (stereo partly drawn) [Compound 260, 2-(3-((R)-((1r,3R)-3-(2,2-difluoroethoxy)cyclobutyl)(4-methyl-4H-1,2,4-triazol-3-yl)methyl)phenyl)-6-(((1-methylcyclobutyl)amino)methyl)-4-(trifluoromethyl)isoindolin-1-one] |
| 0.011 µM | 2.3x | 0.027 µM | 5.9× | 0.0026 µM | 0.016 µM | Cn1cnnc1[C@@H](c1cccc(N2Cc3c(Cl)cc(CNC4(C)CCC4)cc3C2=O)c1)C1COC1 [Compound 270, (R)-4-chloro-2-(3-((4-methyl-4H-1,2,4-triazol-3-yl)(oxetan-3-yl)methyl)phenyl)-6-(((1-methylcyclobutyl)amino)methyl)-isoindolin-1-one] |
| 0.015 µM | 1.7x | 0.025 µM | 7.6× | 0.0014 µM | 0.011 µM | Cn1cnnc1[C@]1(c2cccc(N3Cc4c(cc(CNC5(C)CCC5)cc4C(F)F)C3=O)c2)C[C@@H](F)C1 [Compound 272, 4-(difluoromethyl)-2-(3-((1r,3r)-3-fluoro-1-(4-methyl-4H-1,2,4-triazol-3-yl)cyclobutyl)phenyl)-6-(((1-methylcyclobutyl)amino)methyl)isoindolin-1-one] |
| 0.0075 µM | 0.91x | 0.0069 µM | 2.0× | 0.0001 µM | 0.0002 µM | CCNc1cc([C@]2(c3nncn3C)C[C@@H](C)C2)cc(N2Cc3c(cc(CNC4(C)CCC4)cc3C(F)F)C2=O)n1 [Compound 274, 4-(difluoromethyl)-2-(6-(ethylamino)-4-((1s,3s)-3-methyl-1-(4-methyl-4H-1,2,4-triazol-3-yl)cyclobutyl)pyridin-2-yl)-6-(((1-methylcyclobutyl)amino)methyl)isoindolin-1-one] |
| 3.6 µM | 2.3x | 8.6 µM | 5.3× | 1.4 µM | 7.7 µM | Cn1cnnc1[C@@H](C[C@H]1CCOC1)c1cccc(N2Cc3c(cc(CNC4(C)CCC4)cc3C(F)(F)F)C2=O)c1 [Compound 277, 2-(3-((S)-1-(4-methyl-4H-1,2,4-triazol-3-yl)-2-((S)-tetrahydrofuran-3-yl)ethyl)phenyl)-6-(((1-methylcyclobutyl)amino)methyl)-4-(trifluoromethyl)isoindolin-1-one] |
| 5 µM | 1.8x | 8.9 µM | 4.8× | 1.8 µM | 8.6 µM | Cn1cnnc1[C@H](C[C@H]1CCOC1)c1cccc(N2Cc3c(cc(CNC4(C)CCC4)cc3C(F)(F)F)C2=O)c1 [Compound 278, 2-(3-((R)-1-(4-methyl-4H-1,2,4-triazol-3-yl)-2-((S)-tetrahydrofuran-3-yl)ethyl)phenyl)-6-(((1-methylcyclobutyl)amino)methyl)-4-(trifluoromethyl)isoindolin-1-one] |
| 0.0066 µM | 1.4x | 0.0093 µM | 6.4× | 0.0018 µM | 0.012 µM | Cn1cnnc1C1(c2cccc(N3Cc4c(cc(CNC5(C)CCC5)cc4C(F)(F)F)C3=O)c2)CCC1 [Compound 279, 2-(3-(1-(4-methyl-4H-1,2,4-triazol-3-yl)cyclobutyl)phenyl)-6-(((1-methylcyclobutyl)amino)methyl)-4-(trifluoromethyl)isoindolin-1-one] |
| 0.41 µM | 6.5x | 2.8 µM | 10× | 0.23 µM | 2.3 µM | Cn1cnnc1C1(c2cccc(N3Cc4c(cc(CNC5(C)CCC5)cc4C(F)(F)F)C3=O)c2)CCOCC1 [Compound 282, 2-(3-(4-(4-methyl-4H-1,2,4-triazol-3-yl)tetrahydro-2H-pyran-4-yl)phenyl)-6-(((1-methylcyclobutyl)amino)methyl)-4-(trifluoromethyl)isoindolin-1-one] |
